These results are taken from patent US12338198B2, “Cancer cell growth inhibiting composition and processed food” (HAGIHARA FARM PRODUCTION INSTITUTE CO., LTD., priority 2019, dated 2025).

The assay relates to Jurkat cells. Description: Effect of compounds on growth of human leukemic T-cell line Jurkat cells (Trypan Blue live cell count). To be noted: for IC50: Homo sapiens, growth of Jurkat cells, viable cell count; for cancer cell growth inhibiting effect compared with phytol: Jurkat cells, 24-72 hours. The assay is classed as cell-based. As for the experimental part: Human leukemic T-cell line Jurkat cells were obtained from the RIKEN BioResource Research Center (Tsukuba-shi, Ibaraki Prefecture). The cells were cultured in RPMI1640 medium (Wako Pure Chemical Industries, Ltd., Osaka-shi, Osaka Prefecture) containing 10% fetal bovine serum (Thermo Fisher Scientifics, K.K., MA, USA), 100 U/mL penicillin and 100 μg/mL spletomycin (both Life Technologies, Carlsbad, CA, USA) at 37° C. in a 95% air-5% CO2 environment.
Jurkat cells were adjusted to 1×10^5 cells/mL and seeded in 24-well multi-plates (Thermo Fisher Scientifics K. K.) by 500 μL/well. After seeding, phytol, aminophytol, amidophytol, methylaminophytol, hexylaminophytol, and acetamidophytol were adjusted with distilled water to a final concentration of 10 μM, 25 μM, and 50 μM respectively, and then added. Note that no compound is added to a control. After adding respective compounds, the cells were stained with Tripan Blue (Life Technologies) after 24, 48, and 72 hours, and live cells were counted using a hemocytometer.
A horizontal axis represents culture time (hours) and a vertical axis represents the number of viable cells (×10^5 cells/mL). “Cont” in the figures represents the control, and “10 μM,” “25 μM,” and “50 μM” represent concentration. FIG. 1 is for phytol; FIG. 2 is for aminophytol; FIG. 3 is for amidophytol; FIG. 4 is for monomethylaminophytol; FIG. 5 is for monohexylaminophytol; and FIG. 6 is for acetamidophytol.

The mark [1] stands for this setting: after 24 hours at a concentration of 25 μM.

A word on the IC50: it is the concentration at which inhibition is half-maximal. A high value points to weaker potency.

With `C/C(=C\CO)CCC[C@H](C)CCC[C@H](C)CCCC(C)C` [phytol, reference compound], it took 29.8 µM to reach half-maximal inhibition (IC50). Further, the “growth of Jurkat cells (cancerous cells)” value (10, 25, 50 μM, 24, 48, 72 hours, concentration-dependence observed) was “inhibited the growth”. In addition, where the note is “after 72 hours at a concentration of 50 μM”, the viable cells entry is “viable cells could still be identified”.
In turn, `CNC/C=C(\C)CCC[C@H](C)CCC[C@H](C)CCCC(C)C` (racemic) [monomethylaminophytol, (E)-N,3,7,11,15-pentamethylhexadec-2-en-1-amine] had an IC50 of 6.6 µM. Where the note is “10, 25, 50 μM”, the “cancer cell growth inhibiting effect compared with phytol” value is “more effect than phytol”. Further, the viable cells result under setting [1] is recorded as “few cells survived”.
The compound `CC(=O)NC/C=C(\C)CCC[C@H](C)CCC[C@H](C)CCCC(C)C` (racemic) [acetamidophytol, (E)-N-(3,7,11,15-tetramethylhexadec-2-en-1-yl)acetamide] yielded an IC50 of 21.2 µM. The “cancer cell growth inhibiting effect compared with phytol” value (10, 25, 50 μM) is “more effect than phytol”. For the same compound, the viable cells entry (at a concentration of 25 μM) is listed as “viable cells could still be identified”. The viable cells entry (at a concentration of 50 μM) is “few cells survived”.
Consider `CCCCCCNC/C=C(\C)CCC[C@H](C)CCC[C@H](C)CCCC(C)C` (racemic) [monohexylaminophytol, (E)-N-hexyl-3,7,11,15-tetramethylhexadec-2-en-1-amine], for which half-maximal inhibition (IC50) required 8.5 µM. Further, the “cancer cell growth inhibiting effect compared with phytol” value (10, 25, 50 μM) is reported as “more effect than phytol”. For the same compound, under setting [1], the viable cells result is reported as “few cells survived”.
The like results for `C/C(=C\C(N)=O)CCC[C@H](C)CCC[C@H](C)CCCC(C)C` (racemic) [amidophytol, (E)-3,7,11,15-tetramethylhexadec-2-enamide] were, in that order, 9.6 µM, “more effect than phytol” and “few cells survived”.
The like results for `C/C(=C\CN)CCC[C@H](C)CCC[C@H](C)CCCC(C)C` (racemic) [aminophytol, (E)-3,7,11,15-tetramethylhexadec-2-en-1-amine] were, in that order, 3.8 µM, “more effect than phytol” and “few cells survived”.
